# Target: T1, acyl-CoA:cholesterol acyltransferase (ACAT) (Oryctolagus cuniculus, UniProt G1SFD9)
# T1 construct: tissue preparation containing rabbit intestinal microsomes; from tissue; host or cells: rabbit intestinal microsomes
# T1 sequence (G1SFD9 1-524): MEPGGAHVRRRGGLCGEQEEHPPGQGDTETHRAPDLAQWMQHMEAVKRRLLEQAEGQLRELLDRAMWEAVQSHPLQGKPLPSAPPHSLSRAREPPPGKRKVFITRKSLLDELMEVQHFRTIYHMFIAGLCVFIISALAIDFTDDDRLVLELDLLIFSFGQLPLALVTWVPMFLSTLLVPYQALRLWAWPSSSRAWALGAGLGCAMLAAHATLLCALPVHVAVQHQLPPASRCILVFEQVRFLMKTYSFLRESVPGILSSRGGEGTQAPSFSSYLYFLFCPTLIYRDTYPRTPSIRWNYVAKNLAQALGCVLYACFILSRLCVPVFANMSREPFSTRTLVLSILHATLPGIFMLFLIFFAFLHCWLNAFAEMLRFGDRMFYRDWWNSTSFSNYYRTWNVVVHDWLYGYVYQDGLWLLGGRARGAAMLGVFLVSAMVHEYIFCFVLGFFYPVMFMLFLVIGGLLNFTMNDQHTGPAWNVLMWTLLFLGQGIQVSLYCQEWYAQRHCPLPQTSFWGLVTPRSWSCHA
# Test: In vitro inhibition of ACAT: formation of radiolabeled cholesterol oleate from radiolabeled oleic acid in rabbit intestinal microsomes
# Type: biochemical
# Settings: not given
# Text: The test assesses the ability of a test compound to inhibit the acylation of cholesterol by oleic acid by measuring the amount of radiolabeled cholesterol oleate formed from radiolabeled oleic acid in a tissue preparation containing rabbit intestinal microsomes.
row,Structure (SMILES),IC50
1,"CCCCCCCCCCC1CN(Cc2ccccc2)P(=O)(OCC(=O)Nc2c(C(C)C)cccc2C(C)C)O1 (racemic) [Example 30, (±)-N-[2,6-Bis(1-methylethyl)phenyl]2-[[5-decyl-3-(phenylmethyl)-1,3,2-oxazaphosphonolidin-2-yl]-oxy]acetamide, P-oxide]",33 nM
2,"CCCCCCCCCOP(=O)(OCC)N(CC(=O)Nc1c(C(C)C)cccc1C(C)C)Cc1ccccc1 (racemic) [Example 32, (±)-[2-[[2,6 Bis(1-methylethyl)phenyl]amino]-2-oxoethyl](phenylmethyl)phosphoramidic Acid, Ethyl Nonyl Ester]",14 nM
3,"CCCCCCCCCOP(=O)(Oc1ccccc1)N(CC(=O)Nc1c(C(C)C)cccc1C(C)C)Cc1ccccc1 (racemic) [Example 34, (±)-[[[2,6-Bis(1-methylethyl)phenyl]amino]2-oxoethyl]-(phenylmethyl)phosphoramidic Acid, Nonyl Phenyl Ester]",23 nM
4,"CCCCCCCCCCCCC(C)OP(=O)(Oc1ccccc1)N(CC(=O)Nc1c(C(C)C)cccc1C(C)C)Cc1ccccc1 (racemic) [Example 35, (±)-[2-[[2,6-Bis(1-methylethyl)phenyl]amino]-2-oxoethyl](phenylmethyl)phosphoramidic Acid, 1-Methyltridecyl Phenyl Ester]",160 nM

# Same assay, conditions: rabbit intestinal microsomes; read-out: IC50 (concentration of test compound required to inhibit cholesteryl oleate formation to 50% of control)
row,Structure (SMILES),IC50
1,"CCCCCCC(C)OP(=O)(CC(=O)Nc1c(C(C)C)cccc1C(C)C)c1ccccc1 (racemic) [Example 11, (±)-2-[2,6-Bis(1-methylethyl)phenyl]amino]-2-oxoethyl]phenylphosphinic Acid, 1-Methylheptyl Ester]",35 nM
2,"CCCCCCCCCCCCOP(=O)(CC(=O)Nc1c(C(C)C)cccc1C(C)C)c1ccccc1 (racemic) [Example 12, (±)-[2-[[2,6-Bis(1-methylethyl)phenyl]amino]-2-oxoethyl]phenylphosphinicAcid, Dodecyl Ester]",29 nM
3,"CCCCCCCCCOP(=O)(c1ccccc1)N(CC(=O)Nc1c(C(C)C)cccc1C(C)C)Cc1ccccc1 (racemic) [Example 31, (±)-N-[2-[2,6-Bis(1-methylethyl)phenyl]amino]-2-oxoethyl]-P-phenyl-N-(phenylmethyl)phosphonamidic Acid, Nonyl Ester]",23 nM
4,"CC(C)c1cccc(C(C)C)c1NC(=O)CP(=O)(c1ccccc1)c1ccccc1 [Example 2, N-2,6-Bis(1-methylethyl)phenyl-2-(diphenylphosphinyl)acetamide]",2300 nM
5,"CC(C)c1cccc(C(C)C)c1NC(=O)CP(=O)(OCc1ccccc1)OCc1ccccc1 [Example 36, [2-[[2,6-Bis(1-methylethyl)phenyl]amino]-2-oxoethyl]phosphonic Acid, Bis (Phenylmethyl)ester]",72 nM

# From patent US5208224A, “Phosphorus containing compounds as antihypercholesterolemic and antiatherosclerotic agents” (Warner-Lambert Company, priority 1991, dated 1993)
